Assay results: patent US4112101A, “N-(Pyridyl)-1H-(or 2H) tetrazole-5-carboxamide derivatives for the prevention of immediate type hypersensitivity reactions” (American Home Products Corporation, priority 1977, dated 1978)
Structures can show the parent of a compound that is named as a salt.

System: passive cutaneous anaphylaxis using rat homocytotropic antibody
Test: rat passive cutaneous anaphylaxis test (rat PCA test)
Assay type: in vivo
Description: The technique employed to establish the anti-allergic activity of the 1H-tetrazole-5-carboxamide derivatives is reported in Immunology, vol. 16, pp. 749-760 (1969) and involves four male Charles River rats (200-250 grams body weight) per group to provide a control, a host for administration of a standard anti-allergic compound (disodium cromoglycate) and animals for the test compound. The rats were injected intracutaneously on their shaved backs with sera from rats immunized with egg albumin and pertussis vaccine. Twenty-four hours after the initial injections, the test compound is administered intraperitoneally or orally at a dosage level of 200 milligrams per kilogram host body weight or less. Five minutes later one milliliter of a 0.5 percent solution of Evans blue dye and 8 milligrams of egg albumin is injected intravenously. After 40 minutes, the animal is sacrificed and the bleb size on its back is measured. The mean bleb size for the animals administered the test compound is calculated and the percent inhibition is determined by comparison with the control animal.
In other words, the compounds of this invention block the release of mediators commonly resulting from the antigen-antibody reaction as exemplified in a passive cutaneous anaphylaxis test (PCA) using rat homocytotropic antibody -- a known correlate of human reaginic antibody.

## O=C(Nc1ccccn1)c1nn[nH]n1 [Example 1, N-(2-Pyridinyl)-1H-tetrazole-5-carboxamide, sodium salt]
Intraperitoneal (i.p.), dose 1.0 mg/kg
  % inhibition: 82.6%
Intraperitoneal (i.p.), dose 10 mg/kg
  % inhibition: 99.0%
Intraperitoneal (i.p.), dose 100 mg/kg
  % inhibition: 72.5%
Intraperitoneal (i.p.), dose .01 mg/kg
  % inhibition: 24.8%
Intraperitoneal (i.p.), dose .1 mg/kg
  % inhibition: 41.9%
Oral (p.o.), dose 1 mg/kg
  % inhibition: 62.6%
Oral (p.o.), dose 10 mg/kg
  % inhibition: 94.8%
Oral (p.o.), dose 100 mg/kg
  % inhibition: 100.0%
Oral (p.o.), dose .01 mg/kg
  % inhibition: 40.4%
Oral (p.o.), dose .1 mg/kg
  % inhibition: 25.1%
